Test results published in PubChem BioAssay (NCI).
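48-hour exposure; five concentrations; linearly interpolated endpoints. GI50: concentration for 50% inhibition of growth. TGI denotes the concentration required for complete inhibition of growth.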

How the values were obtained:
Test in all cases: growth of human tumour cells (NCI), 48 h
[1] = tested on: ACHN renal
[2] = tested on: SF-295 CNS
[3] = tested on: MDA-MB-231 breast
[4] = tested on: UACC-62 melanoma
[5] = tested on: HS 578T breast
[6] = tested on: A549 NSCLC
[7] = tested on: MCF7 breast
[8] = tested on: IGROV1 ovarian
[9] = tested on: MALME-3M melanoma
[10] = tested on: SF-268 CNS
[11] = tested on: HL-60(TB) leukemia
[12] = tested on: NCI-H226 lung
[13] = tested on: MDA-MB-435
[14] = tested on: NCI-H23 lung
[15] = tested on: EKVX NSCLC
[16] = tested on: LOX IMVI melanoma
[17] = tested on: HCT-116 colon
[18] = tested on: HT29 colon
[19] = tested on: NCI-H522 lung
[20] = tested on: CAKI-1 renal
[21] = tested on: OVCAR-3 ovarian
[22] = tested on: HOP-92 NSCLC
[23] = tested on: SNB-19 CNS
[24] = tested on: COLO 205 colon
[25] = tested on: HOP-62 NSCLC
[26] = tested on: MOLT-4 leukemia
[27] = tested on: HCT-15 colon
[28] = tested on: RPMI-8226 leukemia
[29] = tested on: CCRF-CEM leukemia
[30] = tested on: SW-620 colon
[31] = tested on: MDA-MB-468 breast
[32] = tested on: M14 melanoma
[33] = tested on: SK-MEL-2 melanoma
[34] = tested on: T-47D breast
[35] = tested on: TK-10 renal
[36] = tested on: SNB-75 CNS
[37] = tested on: BT-549 breast
[38] = tested on: SF-539 CNS
[39] = tested on: PC-3 prostate
[40] = tested on: SK-MEL-28 melanoma
[41] = tested on: OVCAR-5 ovarian
[42] = tested on: DU-145 prostate
[43] = tested on: OVCAR-8 ovarian
[44] = tested on: KM12 colon
[45] = tested on: U251 CNS
[46] = tested on: NCI/ADR-RES ovarian
[47] = tested on: OVCAR-4 ovarian
[48] = tested on: SN12C renal
[49] = tested on: NCI-H460 lung
[50] = tested on: UO-31 renal
[51] = tested on: SK-OV-3 ovarian
[52] = tested on: SK-MEL-5 melanoma
[53] = tested on: A498 renal
[54] = tested on: K-562 leukemia
[55] = tested on: 786-0 renal
[56] = tested on: HCC-2998 colon
[57] = tested on: UACC-257 melanoma
[58] = tested on: RXF 393 renal
[59] = tested on: SR leukemia

Structure (SMILES): CN(C)CCCNC(=O)c1cc(NC(=O)c2cc(NC(=O)c3ccc(/C=C/c4ccccc4)cc3)cn2C)cn1C
- GI50 [1]: 11.5 µM
- TGI [1]: > 31.3 µM
- GI50 [2]: 8.56 µM
- TGI [2]: > 31.3 µM
- GI50 [3]: 8.81 µM
- TGI [3]: > 31.3 µM
- GI50 [4]: 7.46 µM
- TGI [4]: > 31.3 µM
- GI50 [5]: 8.39 µM
- TGI [5]: > 31.3 µM
- GI50 [6]: 13.3 µM
- TGI [6]: > 31.3 µM
- GI50 [7]: 1.71 µM
- TGI [7]: 6.85 µM
- GI50 [8]: 22.5 µM
- TGI [8]: > 31.3 µM
- GI50 [9]: 7.41 µM
- TGI [9]: > 31.3 µM
- GI50 [10]: 10.6 µM
- TGI [10]: > 31.3 µM
- GI50 [11]: 7.05 µM
- TGI [11]: 20.7 µM
- GI50 [12]: 9.93 µM
- TGI [12]: > 31.3 µM
- GI50 [13]: 8.48 µM
- TGI [13]: > 31.3 µM
- GI50 [14]: 13.2 µM
- TGI [14]: > 31.3 µM
- GI50 [15]: 10.6 µM
- TGI [15]: > 31.3 µM
- GI50 [16]: 4.67 µM
- TGI [16]: 8.86 µM
- GI50 [17]: 5.36 µM
- TGI [17]: 13.4 µM
- GI50 [18]: 5.89 µM
- TGI [18]: 21.1 µM
- GI50 [19]: 7.34 µM
- TGI [19]: 24.2 µM
- GI50 [20]: 10.9 µM
- TGI [20]: > 31.3 µM
- GI50 [21]: 6.75 µM
- TGI [21]: 26.4 µM
- GI50 [22]: 3.95 µM
- TGI [22]: 17.7 µM
- GI50 [23]: 16.7 µM
- TGI [23]: > 31.3 µM
- GI50 [24]: 9.44 µM
- TGI [24]: 26.4 µM
- GI50 [25]: 7.16 µM
- TGI [25]: 19.8 µM
- GI50 [26]: 7.27 µM
- TGI [26]: 25.9 µM
- GI50 [27]: 7.26 µM
- TGI [27]: 25.7 µM
- GI50 [28]: 3.51 µM
- TGI [28]: 16.5 µM
- GI50 [29]: 5.03 µM
- TGI [29]: 21.5 µM
- GI50 [30]: 6.62 µM
- TGI [30]: 14.9 µM
- GI50 [31]: 5.72 µM
- TGI [31]: 14.5 µM
- GI50 [32]: 5.05 µM
- TGI [32]: 10.1 µM
- GI50 [33]: 5.32 µM
- TGI [33]: 10.9 µM
- GI50 [34]: 6.01 µM
- TGI [34]: > 31.3 µM
- GI50 [35]: 12.1 µM
- TGI [35]: > 31.3 µM
- GI50 [36]: 1.98 µM
- TGI [36]: 24.6 µM
- GI50 [37]: 4.28 µM
- TGI [37]: 16.5 µM
- GI50 [38]: 5.41 µM
- TGI [38]: 10.9 µM
- GI50 [39]: 10.1 µM
- TGI [39]: > 31.3 µM
- GI50 [40]: 15.2 µM
- TGI [40]: > 31.3 µM
- GI50 [41]: 20.3 µM
- TGI [41]: > 31.3 µM
- GI50 [42]: 11.5 µM
- TGI [42]: > 31.3 µM
- GI50 [43]: 6.5 µM
- TGI [43]: 18.7 µM
- GI50 [44]: 7.16 µM
- TGI [44]: 18.5 µM
- GI50 [45]: 5.36 µM
- TGI [45]: 10.7 µM
- GI50 [46]: 7.76 µM
- TGI [46]: 24.3 µM
- GI50 [47]: 16.1 µM
- TGI [47]: > 31.3 µM
- GI50 [48]: 7.41 µM
- TGI [48]: > 31.3 µM
- GI50 [49]: 6.91 µM
- TGI [49]: 16.2 µM
- GI50 [50]: 9.91 µM
- TGI [50]: > 31.3 µM
- GI50 [51]: 17.6 µM
- TGI [51]: > 31.3 µM
- GI50 [52]: 8.85 µM
- TGI [52]: > 31.3 µM
- GI50 [53]: 25.2 µM
- TGI [53]: > 31.3 µM
- GI50 [54]: 5.83 µM
- TGI [54]: 19 µM
- GI50 [55]: 9.14 µM
- TGI [55]: > 31.3 µM
- GI50 [56]: 10.1 µM
- TGI [56]: > 31.3 µM
- GI50 [57]: 10.5 µM
- TGI [57]: > 31.3 µM
- GI50 [58]: 3.2 µM
- TGI [58]: 19 µM

Structure (SMILES): Cc1ccc(/C=C(\C#N)n2nnc3c(F)cccc32)cc1
- GI50 [1]: 0.555 µM
- TGI [1]: > 100 µM
- GI50 [2]: 0.289 µM
- TGI [2]: 50.8 µM
- GI50 [3]: 0.426 µM
- TGI [3]: 2.77 µM
- GI50 [4]: 0.273 µM
- TGI [4]: 27 µM
- GI50 [5]: 0.379 µM
- TGI [5]: > 100 µM
- GI50 [6]: 0.504 µM
- TGI [6]: > 100 µM
- GI50 [7]: 1.53 µM
- TGI [7]: > 100 µM
- GI50 [8]: 0.507 µM
- TGI [8]: 9.15 µM
- GI50 [9]: 0.404 µM
- TGI [9]: > 96.2 µM
- GI50 [10]: 0.765 µM
- TGI [10]: > 61.5 µM
- GI50 [11]: 0.196 µM
- TGI [11]: 0.519 µM
- GI50 [12]: 0.936 µM
- TGI [12]: > 62.9 µM
- GI50 [14]: 0.523 µM
- TGI [14]: 29 µM
- GI50 [15]: 1.56 µM
- TGI [15]: > 94.1 µM
- GI50 [16]: 0.349 µM
- TGI [16]: 2.3 µM
- GI50 [17]: 0.285 µM
- TGI [17]: > 35.8 µM
- GI50 [18]: 0.426 µM
- TGI [18]: > 100 µM
- GI50 [19]: 0.0844 µM
- TGI [19]: 0.36 µM
- GI50 [20]: 0.152 µM
- TGI [20]: > 100 µM
- GI50 [21]: 0.254 µM
- TGI [21]: 0.941 µM
- GI50 [59]: 0.254 µM
- TGI [59]: 4.31 µM
- GI50 [22]: 0.0797 µM
- TGI [22]: 1.68 µM
- GI50 [23]: 0.718 µM
- TGI [23]: > 100 µM
- GI50 [24]: 0.294 µM
- TGI [24]: 0.739 µM
- GI50 [25]: 0.398 µM
- TGI [25]: 6.29 µM
- GI50 [26]: 0.473 µM
- TGI [26]: 4.4 µM
- GI50 [27]: 0.319 µM
- TGI [27]: > 100 µM
- GI50 [28]: 0.296 µM
- TGI [28]: 1.71 µM
- GI50 [29]: 0.285 µM
- TGI [29]: 1.66 µM
- GI50 [30]: 0.25 µM
- TGI [30]: > 100 µM
- GI50 [31]: 1.53 µM
- TGI [31]: 8.71 µM
- GI50 [33]: 0.302 µM
- TGI [33]: > 100 µM
- GI50 [34]: 1.63 µM
- TGI [34]: > 100 µM
- GI50 [35]: 2.7 µM
- TGI [35]: 7.79 µM
- GI50 [37]: 0.365 µM
- TGI [37]: 2.49 µM
- GI50 [38]: 0.2 µM
- TGI [38]: 0.467 µM
- GI50 [39]: 0.328 µM
- TGI [39]: > 38.9 µM
- GI50 [40]: 0.825 µM
- TGI [40]: > 100 µM
- GI50 [41]: 0.421 µM
- TGI [41]: 5.24 µM
- GI50 [42]: 0.386 µM
- TGI [42]: > 100 µM
- GI50 [43]: 0.328 µM
- TGI [43]: 1.69 µM
- GI50 [44]: 0.47 µM
- TGI [44]: > 100 µM
- GI50 [45]: 0.387 µM
- TGI [45]: > 42.7 µM
- GI50 [46]: 0.111 µM
- TGI [46]: 0.343 µM
- GI50 [47]: 2.79 µM
- TGI [47]: > 100 µM
- GI50 [48]: 0.416 µM
- TGI [48]: 2.25 µM
- GI50 [49]: 0.376 µM
- TGI [49]: 3.3 µM
- GI50 [50]: 0.324 µM
- TGI [50]: > 100 µM
- GI50 [51]: 0.585 µM
- TGI [51]: 46.2 µM
- GI50 [52]: 0.399 µM
- TGI [52]: 4.36 µM
- GI50 [53]: 10.8 µM
- TGI [53]: 87 µM
- GI50 [54]: 0.0624 µM
- GI50 [55]: 0.424 µM
- TGI [55]: 15.8 µM
- GI50 [56]: 0.971 µM
- TGI [56]: 3.24 µM
- GI50 [57]: 0.894 µM
- TGI [57]: > 100 µM
- GI50 [58]: 0.237 µM
- TGI [58]: 0.735 µM
